Results taken from patent US20060135461A1, “Reduction of hair growth” (priority 2004, published 2006).
Counter-ions that a name gives are not always drawn. Like-named read-outs stand apart in the source and are kept apart here.

Legend:
flank organ hair growth = test: Golden Syrian Hamster Assay; assay type: in vivo; settings: for % Inhibition: hair mass vs vehicle side; for Treated Side: hair mass
Source text: Golden Syrian Hamster Assay
Male intact Golden Syrian hamsters are considered acceptable models for human beard hair growth in that they display oval shaped flank organs, one on each side, each about 8 mm. in major diameter. These organs produce fine light colored hair typical of the animal pelage found on the body. In response to androgens the flank organs produce dark coarse hair similar to male human beard hair. To evaluate the effectiveness of a composition, the flank organs of each of a group of hamsters are depilated by applying a thioglycolate-based chemical depilatory (Surgex) and/or shaved. To one organ of each animal 10 μl of vehicle alone once a day is applied, while to the other organ of each animal an equal amount of vehicle containing a survivin inhibitor. After thirteen applications (one application per day for five days a week), the flank organs are shaved and the amount of recovered hair (hair mass) from each is weighed. For certain experiments, where indicated, the treatment period was for less than 13 applications. The reduced treatment period allowed for determination of onset in activity. Percent-reduction of hair growth is calculated by subtracting the hair mass (mg) value of the test compound treated side from the hair mass value of the vehicle treated side; the delta value obtained is then divided by the hair mass value of the vehicle treated side, and the resultant number is multiplied by 100. Visual evaluations comparing hair regrowth between the drug treated and the vehicle control site were made generally on day-8, day-15 and on day-19. These observations provide an identification of onset in activity (and thus efficacy).

human hair follicles = test: Human Hair Follicle Growth Assay; assay type: cell-based; settings: for Length Increase (mm): follicle length day 6 minus day 0
Source text: Human Hair Follicle Growth Assay
Human skin was obtained from a plastic surgeon as a by-product of face-lift procedures. The skin samples generally consisted of haired and non-haired regions taken from the area of the face. Immediately after removal, the skin was placed in Williams E medium containing antibiotics, and kept refrigerated. The Williams E medium was commercially obtained (Life Technologies, Gaithersburg, Md.), and has been formulated with essential nutrients for maintaining viability of hair follicle in an in-vitro environment.
Human hair follicles in growth phase (anagen) were isolated from face-lift tissue under a dissecting scope using a scalpel and watchmakers forceps. The skin was sliced into thin strips exposing 2-3 rows of follicles that could readily be dissected. Follicles were placed into 0.5 ml Williams E medium supplemented with 2 mM L-glutamine, 10 ug/ml insulin, 10 ng/ml hydrocortisone, 100 units penicillin, 0.1 mg/ml streptomycin and 0.25 μg/ml amphotericin B. The follicles were incubated in 24 well plates (1 follicle/well) at 37° C. in an atmosphere of 5% CO2 and 95% air. Hair follicle images were taken in the 24-well plates under the dissecting scope under a power of 20×. Hair follicle lengths were measured on day 0 (day follicles were placed in culture) and again on day 6-7. In this system follicles appear to fully differentiate into a hair fiber and increase in length at a rate similar to the human, in vivo, rate of about 0.3 mm/day. For testing survivin inhibitors, the inhibitor was included in the culture medium from time 0 and remained in the medium throughout the course of the experiment.

survivin = test: Determination of Hair Follicle Survivin Protein Content by ELISA; assay type: cell-based, human; settings: for Survivin Protein: human hair follicles in vitro, normalized to total protein; for Inhibition: survivin protein level
Procedure: Determination of Hair Follicle Survivin Protein Content by ELISA (Enzyme-Linked Immunosorbent Assay)
For protein extraction, 5-micron cryosections of the hair follicles were collected into the centrifuge tubes, followed by short time incubation with the lysis buffer (BD Bioscience; CA; Cat #K 1848-1). The solutions were centrifuged for 30 minutes at 14,000×g at 4° C., and the supernatants were frozen and stored at −80° C. For quantification of survivin protein, a commercially available ELISA kit was used, following the manufacturer's instructions (Assay Design Inc; Michigan; Cat # 900-111). Total protein concentration in the extracts was determined by using the bicinchoninic acid (BCA) protein assay (Pierce Chemical Company, Rockford; Cat #23225). The readings of optical density were performed, using EL340 Bio Kinetics microplate reader (Bio-Tek Instruments Inc). The survivin levels (in pg/ml) were normalized against the total amount of protein (in ug/ml) extracted from hair follicles.

[1] = 10% topical, vehicle 10% DMSO in ethanol, water, emerest, and propylene glycol
[2] = 5% topical, vehicle 20% propylene glycol in ethanol

`COc1cc([C@H]2Oc3cc([C@H]4Oc5cc(O)cc(O)c5C(=O)[C@@H]4O)ccc3O[C@@H]2CO)ccc1O` [Silibinin, (2R,3R)-2-[(2R,3R)-2,3-dihydro-3-(4-hydroxy-3-methoxyphenyl)-2-(hydroxymethyl)-1,4-benzodioxin-6-yl]-2,3-dihydro-3,5,7-trihydroxy-4H-1-benzopyran-4-one] was tested, and the “% Inhibition” value (flank organ hair growth; [1]) was 62.1 + 5.5% and the “Treated Side” value (flank organ hair growth; [1]) was 0.77 ± .14 mg.
In the case of `CC[C@H](CO)Nc1nc(NCc2ccccc2)c2ncn(C(C)C)c2n1` [Roscovitine, (R)-2-[[9-(1-methylethyl)-6-[(phenylmethyl)amino]-9H-purin-2-yl]amino]-1-butanol], the “Length Increase in mm” value (human hair follicles; 10 uM Roscovitine in culture medium) is reported as 0.97 ± 0.13 mm, the “Length Increase in mm” value (human hair follicles; 15 uM Roscovitine in culture medium) is reported as 0.5 ± 0.1 mm and the “Length Increase in mm” value (human hair follicles; 20 uM Roscovitine in culture medium) is reported as 0.05 ± 0.05 mm. It also gave an inhibition at 10 µM (human hair follicles; Homo sapiens, 10 uM Roscovitine vs control) of 42%, an inhibition at 15 µM (human hair follicles; Homo sapiens, 15 uM Roscovitine vs control) of 60% and an inhibition at 20 µM (human hair follicles; Homo sapiens, 20 uM Roscovitine vs control, read-out: Hair Growth Inhibition) of 80%. The “Survivin Protein” value (survivin; 15 uM Roscovitine) was 0.03 pg/mg, the “Survivin Protein” value (survivin; 20 uM Roscovitine) was 0.007 pg/mg and the Inhibition (survivin; 15 uM Roscovitine vs control) was 62%. The Inhibition (survivin; 20 uM Roscovitine vs control) was 95%.
In the case of `CC(Cc1ccc(OC(=O)CN(C)C)c(OC(=O)CN(C)C)c1)C(C)Cc1ccc(OC(=O)CN(C)C)c(OC(=O)CN(C)C)c1` [G4N, meso-1,4-bis[(3,4-dimethylaminoacetoxy)phenyl]-(2R,3S)-dimethylbutane hydrochloride salt], the “% Inhibition” value (flank organ hair growth; [2]) is reported as 48 ± 6%, the “Treated Side” value (flank organ hair growth; [2]) is reported as 1.17 ± 0.2 mg and the “Length Increase (mm)” value (human hair follicles; G4N 20 uM in culture medium) is reported as 1.19 ± 0.11 mm. The “Length Increase (mm)” value (human hair follicles; G4N 50 uM in culture medium) was 0.61 ± 0.14 mm, the inhibition at 20 µM (human hair follicles; Homo sapiens, 144 h, 20 uM, hair growth vs control, day 6, read-out: % Inhibition) was 30% and the inhibition at 50 µM (human hair follicles; Homo sapiens, 144 h, 50 uM, hair growth vs control, day 6) was 64%.
